This is an account of results in patent US20200060276A1, “THIAZOLE COMPOUND AND HERBICIDE” (OAT Agrio Co., Ltd., priority 2017, published 2020).

What all share (assay type): in vivo
In assay [1] the test system is Echinochloa crus-galli (L.) P. Beauv. var. formosensis Ohwi. The assay can be described thus: Test for Herbicidal Effect in Flooding Treatment (#1), ECHDG. To be noted: for ECHDG #1 herbicidal effect (growth inhibition grade): flooding treatment at seeding, dose 2 kg/ha, visual observation on day 21; for ECHDG #1 herbicidal effect (growth inhibition rating 0-5): flooding treatment #1. On the procedure: (§1) (#1) Test for Herbicidal Effect in Flooding Treatment: Styrol cups each having an opening diameter of 8 cm (about 52 cm^2) were respectively filled with soil (45 ml) which had been passed through a sieve (2 mm). Water (about 115 ml) was mixed with the soil such that the soil was flooded. After the soil stood still for 24 hours, Monochoria vaginalis, Echinochloa crus-galli (L.) P. Beauv. var. formosensis Ohwi, Cyperus difformis (umbrella sedge), and Scirpus juncoides were seeded. Each of the compounds of the present invention was dissolved in acetone, and the obtained product was then diluted with water containing Tween 80®. Each of the resultant chemical solutions was dropped on the entire surface of an associated one of treatment sections, so that each section was treated with 1 ml of the respective chemical solution (a dose of 2 kg/ha). After the treatment, the plants were grown in a glasshouse. On day 21, a survey was conducted on the herbicidal activity by visual observation, and evaluation was made according to the following criteria. 0: Growth inhibition effect is less than 10%. 1: Growth inhibition effect is equal to or greater than 10%, and less than 30%. 2; Growth inhibition effect is equal to or greater than 30%, and less than 50%. 3: Growth inhibition effect equal to or greater than 50%, and less than 70%. 4: Growth inhibition effect is equal to or greater than 70%, and less than 90%. 5: Growth inhibition effect is equal to or greater than 90%, or complete withering is achieved. ECHDG=Echinochloa crus-galli (L.) P. Beauv. var. formosensis Ohwi, MONVA=Monochoria vaginalis, SCIJU=Scirpus juncoides, CYMIC=Cyperus microiria.

The test system is the same in assay [2]. The assay can be described thus: Test for Herbicidal Effect in Flooding Treatment (#2), ECHDG at 2-2.5 leaf stage. To be noted: for ECHDG (2-2.5L) #2 herbicidal effect (growth inhibition grade): flooding treatment at 2-2.5 leaf stage, dose 0.2 kg/ha, visual observation on day 21; for ECHDG (2-2.5L) #2 herbicidal effect (growth inhibition rating 0-5): flooding treatment #2, 2-2.5 leaf stage. On the procedure:
(#2) Test for Herbicidal Effect in Flooding Treatment: Styrol cups each having an opening diameter of 13 cm (about 130 cm^2) were respectively filled with muddy soil (500 ml). Water (about 300 ml) was mixed with the soil such that the soil was flooded. After the soil stood still for 24 hours, Echinochloa crus-galli (L.) P. Beauv. var. formosensis Ohwi was seeded. When the Echinochloa crus-galli (L.) P. Beauv. var. formosensis Ohwi grew to reach 2-2.5 leaf stage, chemical solutions were dropped on the entire surface of treatment sections, so that each section is treated with 1 ml of the respective chemical solution (a dose of 0.2 kg/ha). Each of the chemical solutions was prepared by dissolving associated one of the compounds of the present invention in acetone, followed by dilution with water containing Tween 80 g. After the treatment, the plants were grown in a glasshouse. On day 21, a survey was conducted on the herbicidal activity by visual observation, and evaluation was made according to the following criteria. 0: Growth inhibition effect is less than 10%. 1: Growth inhibition effect is equal to or greater than 10%, and less than 30%. 2; Growth inhibition effect is equal to or greater than 30%, and less than 50%. 3: Growth inhibition effect equal to or greater than 50%, and less than 70%. 4: Growth inhibition effect is equal to or greater than 70%, and less than 90%. 5: Growth inhibition effect is equal to or greater than 90%, or complete withering is achieved. ECHDG=Echinochloa crus-galli (L.) P. Beauv. var. formosensis Ohwi, MONVA=Monochoria vaginalis, SCIJU=Scirpus juncoides, CYMIC=Cyperus microiria. The herbicidal activity of the following comparative compounds A and B (the compounds disclosed Japanese Unexamined Patent Publication No. 2003-096059) were evaluated in a manner pursuant to Test Example 1. (#2).

Assay [3] deals with Scirpus juncoides. The assay can be described thus: Test for Herbicidal Effect in Flooding Treatment (#1), SCIJU. To be noted: for SCIJU #1 herbicidal effect (growth inhibition grade): flooding treatment at seeding, dose 2 kg/ha, visual observation on day 21; for SCIJU #1 herbicidal effect (growth inhibition rating 0-5): flooding treatment #1. Here is the method: as §1

On to `CC(c1c(F)cccc1OC(F)F)S(=O)(=O)c1ncc(Cl)s1` (racemic) [Compound 1C-140], for which, in assay [1], the “ECHDG #1 herbicidal effect (growth inhibition grade)” value is 5 (Growth inhibition effect is equal to or greater than 90%, or complete withering is achieved). For the same compound, the “ECHDG (2-2.5L) #2 herbicidal effect (growth inhibition grade)” value in assay [2] is listed as 5 (Growth inhibition effect is equal to or greater than 90%, or complete withering is achieved). Also, the “SCIJU #1 herbicidal effect (growth inhibition grade)” value in assay [3] is given as 5 (Growth inhibition effect is equal to or greater than 90%, or complete withering is achieved).

With `[O-][S+](Cc1c(Cl)cccc1OC(F)F)c1ncc(Cl)s1` (stereo not shown) [Compound 1B-4], the “ECHDG #1 herbicidal effect (growth inhibition rating 0-5)” value in assay [1] is 5 (Growth inhibition effect is equal to or greater than 90%, or complete withering is achieved). Besides, the “ECHDG (2-2.5L) #2 herbicidal effect (growth inhibition rating 0-5)” value in assay [2] is 5 (Growth inhibition effect is equal to or greater than 90%, or complete withering is achieved). Further, the “SCIJU #1 herbicidal effect (growth inhibition rating 0-5)” value in assay [3] is 5 (Growth inhibition effect is equal to or greater than 90%, or complete withering is achieved).

Turning to `[O-][S+](Cc1c(F)cccc1OC(F)(F)F)c1ncc(Cl)s1` (stereo not shown) [Compound 1B-5], the “ECHDG #1 herbicidal effect (growth inhibition rating 0-5)” value in assay [1] is 5 (Growth inhibition effect is equal to or greater than 90%, or complete withering is achieved). Moreover, the “ECHDG (2-2.5L) #2 herbicidal effect (growth inhibition rating 0-5)” value in assay [2] is reported as 5 (Growth inhibition effect is equal to or greater than 90%, or complete withering is achieved). Moreover, the “SCIJU #1 herbicidal effect (growth inhibition rating 0-5)” value in assay [3] is 5 (Growth inhibition effect is equal to or greater than 90%, or complete withering is achieved).

In the case of `[O-][S+](Cc1c(Cl)cccc1OC(F)(F)F)c1ncc(Cl)s1` (stereo not shown) [Compound 1B-6], the “ECHDG #1 herbicidal effect (growth inhibition rating 0-5)” value in assay [1] is on record as 5 (Growth inhibition effect is equal to or greater than 90%, or complete withering is achieved). Besides, the “ECHDG (2-2.5L) #2 herbicidal effect (growth inhibition rating 0-5)” value in assay [2] is reported as 5 (Growth inhibition effect is equal to or greater than 90%, or complete withering is achieved). Further, in assay [3], the “SCIJU #1 herbicidal effect (growth inhibition rating 0-5)” value is 5 (Growth inhibition effect is equal to or greater than 90%, or complete withering is achieved).

For `[O-][S+](Cc1c(OCC(F)(F)F)cccc1C(F)(F)F)c1ncc(Cl)s1` (stereo not shown) [Compound 1B-11], the “ECHDG #1 herbicidal effect (growth inhibition rating 0-5)” value in assay [1] was 5 (Growth inhibition effect is equal to or greater than 90%, or complete withering is achieved). In addition, the “ECHDG (2-2.5L) #2 herbicidal effect (growth inhibition rating 0-5)” value in assay [2] was 5 (Growth inhibition effect is equal to or greater than 90%, or complete withering is achieved). For the same compound, the “SCIJU #1 herbicidal effect (growth inhibition rating 0-5)” value in assay [3] is listed as 5 (Growth inhibition effect is equal to or greater than 90%, or complete withering is achieved).

Turning to `[O-][S+](Cc1ccccc1OC(F)F)c1ncc(Br)s1` (stereo not shown) [Compound 1B-18], in assay [1], the “ECHDG #1 herbicidal effect (growth inhibition rating 0-5)” value was 5 (Growth inhibition effect is equal to or greater than 90%, or complete withering is achieved). The “ECHDG (2-2.5L) #2 herbicidal effect (growth inhibition rating 0-5)” value in assay [2] is reported as 5 (Growth inhibition effect is equal to or greater than 90%, or complete withering is achieved). The “SCIJU #1 herbicidal effect (growth inhibition rating 0-5)” value in assay [3] was 5 (Growth inhibition effect is equal to or greater than 90%, or complete withering is achieved).

Turning to `[O-][S+](Cc1c(F)cccc1OC(F)(F)F)c1ncc(Br)s1` (stereo not shown) [Compound 1B-21], the “ECHDG #1 herbicidal effect (growth inhibition rating 0-5)” value in assay [1] was 5 (Growth inhibition effect is equal to or greater than 90%, or complete withering is achieved). Further, the “ECHDG (2-2.5L) #2 herbicidal effect (growth inhibition rating 0-5)” value in assay [2] is 5 (Growth inhibition effect is equal to or greater than 90%, or complete withering is achieved). For the same compound, the “SCIJU #1 herbicidal effect (growth inhibition rating 0-5)” value in assay [3] is recorded as 5 (Growth inhibition effect is equal to or greater than 90%, or complete withering is achieved).

As to `[O-][S+](Cc1c(Cl)cccc1OC(F)(F)F)c1ncc(Br)s1` (stereo not shown) [Compound 1B-22], the “ECHDG (2-2.5L) #2 herbicidal effect (growth inhibition rating 0-5)” value in assay [2] is 5 (Growth inhibition effect is equal to or greater than 90%, or complete withering is achieved). Further, the “SCIJU #1 herbicidal effect (growth inhibition rating 0-5)” value in assay [3] is on record as 5 (Growth inhibition effect is equal to or greater than 90%, or complete withering is achieved).

On to `[O-][S+](Cc1ccccc1OC(F)(F)C(F)F)c1ncc(Br)s1` (stereo not shown) [Compound 1B-23], for which the “ECHDG #1 herbicidal effect (growth inhibition rating 0-5)” value in assay [1] is on record as 5 (Growth inhibition effect is equal to or greater than 90%, or complete withering is achieved). Also, in assay [2], the “ECHDG (2-2.5L) #2 herbicidal effect (growth inhibition rating 0-5)” value is 4 (Growth inhibition effect is equal to or greater than 70%, and less than 90%).

Take `[O-][S+](Cc1c(OC(F)(F)C(F)(F)F)cccc1C(F)(F)F)c1ncc(Br)s1` (stereo not shown) [Compound 1B-25]: in assay [1], the “ECHDG #1 herbicidal effect (growth inhibition rating 0-5)” value is 5 (Growth inhibition effect is equal to or greater than 90%, or complete withering is achieved). In addition, in assay [2], the “ECHDG (2-2.5L) #2 herbicidal effect (growth inhibition rating 0-5)” value is on record as 5 (Growth inhibition effect is equal to or greater than 90%, or complete withering is achieved). Further, in assay [3], the “SCIJU #1 herbicidal effect (growth inhibition rating 0-5)” value is listed as 5 (Growth inhibition effect is equal to or greater than 90%, or complete withering is achieved).

With `CCS(=O)(=O)c1cccc(F)c1C[S+]([O-])c1ncc(Cl)s1` (stereo not shown) [Compound 1B-28], in assay [1], the “ECHDG #1 herbicidal effect (growth inhibition rating 0-5)” value was 5 (Growth inhibition effect is equal to or greater than 90%, or complete withering is achieved). For the same compound, in assay [3], the “SCIJU #1 herbicidal effect (growth inhibition rating 0-5)” value was 4 (Growth inhibition effect is equal to or greater than 70%, and less than 90%).

`COc1ccc(CS(=O)(=O)c2ncc(Cl)s2)c(F)c1` [Compound 1C-1]: the “ECHDG #1 herbicidal effect (growth inhibition grade)” value in assay [1] is 5 (Growth inhibition effect is equal to or greater than 90%, or complete withering is achieved). The “SCIJU #1 herbicidal effect (growth inhibition grade)” value in assay [3] is 4 (Growth inhibition effect is equal to or greater than 70%, and less than 90%).

`O=S(=O)(Cc1ccc(F)c(Oc2ccccc2)c1)c1ncc(Cl)s1` [Compound 1C-86]: the “ECHDG #1 herbicidal effect (growth inhibition grade)” value in assay [1] is recorded as 5 (Growth inhibition effect is equal to or greater than 90%, or complete withering is achieved). Besides, in assay [2], the “ECHDG (2-2.5L) #2 herbicidal effect (growth inhibition grade)” value is 1 (Growth inhibition effect is equal to or greater than 10%, and less than 30%).

For the compound `O=S(=O)(Cc1ccccc1OC(F)(F)C(F)F)c1ncc(Br)s1` [Compound 1C-163], the “ECHDG #1 herbicidal effect (growth inhibition grade)” value in assay [1] is 5 (Growth inhibition effect is equal to or greater than 90%, or complete withering is achieved). Moreover, the “SCIJU #1 herbicidal effect (growth inhibition grade)” value in assay [3] was 5 (Growth inhibition effect is equal to or greater than 90%, or complete withering is achieved).

For `O=C(CCl)Oc1cccc(F)c1CS(=O)(=O)c1ncc(Cl)s1` [Compound 1C-173], the “SCIJU #1 herbicidal effect (growth inhibition grade)” value in assay [3] was 4 (Growth inhibition effect is equal to or greater than 70%, and less than 90%).

As to `CC(C)(C)[Si](C)(C)Oc1cccc(F)c1CS(=O)(=O)c1ncc(Cl)s1` [Compound 1C-178], the “ECHDG #1 herbicidal effect (growth inhibition grade)” value in assay [1] was 5 (Growth inhibition effect is equal to or greater than 90%, or complete withering is achieved). In addition, the “SCIJU #1 herbicidal effect (growth inhibition grade)” value in assay [3] is 4 (Growth inhibition effect is equal to or greater than 70%, and less than 90%).

`COC(=O)COc1cccc(F)c1CS(=O)(=O)c1ncc(Cl)s1` [Compound 1C-181]: the “ECHDG #1 herbicidal effect (growth inhibition grade)” value in assay [1] is on record as 5 (Growth inhibition effect is equal to or greater than 90%, or complete withering is achieved). For the same compound, the “SCIJU #1 herbicidal effect (growth inhibition grade)” value in assay [3] was 4 (Growth inhibition effect is equal to or greater than 70%, and less than 90%).

Turning to `CCOC(=O)C(F)Oc1cccc(F)c1CS(=O)(=O)c1ncc(Cl)s1` (stereo not shown) [Compound 1C-182], the “ECHDG #1 herbicidal effect (growth inhibition grade)” value in assay [1] is 5 (Growth inhibition effect is equal to or greater than 90%, or complete withering is achieved). In assay [3], the “SCIJU #1 herbicidal effect (growth inhibition grade)” value is 3 (Growth inhibition effect equal to or greater than 50%, and less than 70%).
